Measured values from ChEMBL document CHEMBL1201862, “PubChem BioAssay data set” (2004).
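Assay format: 96-well plates, 48-hour exposure. Abbreviation: GI50, concentration required for 50% inhibition of growth.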 Calls of active or inactive are those of the source. No stated cut-off is given here; in the data, active = GI50 up to about 1.1 µM and inactive = higher.

Tests used:
Experiment in all cases: inhibition of tumour cell growth, NCI panel, 48 h
SF-539 = test system: SF-539
RPMI-8226 = test system: RPMI-8226
UACC-62 = test system: UACC-62
HOP-18 = test system: HOP-18
DMS-273 = test system: DMS-273
HOP-62 = test system: HOP-62
SF-268 = test system: SF-268
HCC 2998 = test system: HCC 2998
SK-MEL-2 = test system: SK-MEL-2
SNB-19 = test system: SNB-19
NCI-H23 = test system: NCI-H23
HL-60 = test system: HL-60
LXFL 529 = test system: LXFL 529
RXF 631 = test system: RXF 631
UO-31 = test system: UO-31
OVCAR-5 = test system: OVCAR-5
SN12C = test system: SN12C
Malme-3M = test system: Malme-3M
OVCAR-4 = test system: OVCAR-4
EKVX = test system: EKVX
SK-OV-3 = test system: SK-OV-3
NCI-H226 = test system: NCI-H226
MOLT-4 = test system: MOLT-4
SW-620 = test system: SW-620
HT-29 = test system: HT-29
K562 = test system: K562
786-0 = test system: 786-0
DMS-114 = test system: DMS-114
ACHN = test system: ACHN
OVCAR-8 = test system: OVCAR-8
COLO 205 = test system: COLO 205
A498 = test system: A498
UACC-257 = test system: UACC-257
IGROV-1 = test system: IGROV-1
KM-20L2 = test system: KM-20L2
KM12 = test system: KM12
HCT-116 = test system: HCT-116
SK-MEL-5 = test system: SK-MEL-5
XF498 = test system: XF498
NCI-H460 = test system: NCI-H460
M14 = test system: M14
SNB-78 = test system: SNB-78
DLD-1 = test system: DLD-1
SNB-75 = test system: SNB-75
SR = test system: SR
HCT-15 = test system: HCT-15
RXF 393 = test system: RXF 393
SF-295 = test system: SF-295
A549 = test system: A549
OVCAR-3 = test system: OVCAR-3
TK-10 = test system: TK-10
U-251 = test system: U-251
M19-MEL = test system: M19-MEL
NCI-H522 = test system: NCI-H522
HOP-92 = test system: HOP-92

## C[n+]1c2ccccc2c(NC(CCC(N)=O)C(=O)O)c2ccccc21 (stereo not given)
SF-539
  GI50: > 100 µM (inactive)
RPMI-8226
  GI50: 21 µM (inactive)
UACC-62
  GI50: > 100 µM (inactive)
HOP-18
  GI50: > 100 µM (inactive)
DMS-273
  GI50: > 100 µM (inactive)
HOP-62
  GI50: > 100 µM (inactive)
SF-268
  GI50: > 100 µM (inactive)
HCC 2998
  GI50: > 100 µM (inactive)
SK-MEL-2
  GI50: > 100 µM (inactive)
SNB-19
  GI50: > 100 µM (inactive)
NCI-H23
  GI50: > 100 µM (inactive)
HL-60
  GI50: > 100 µM (inactive)
LXFL 529
  GI50: > 100 µM (inactive)
RXF 631
  GI50: > 100 µM (inactive)
UO-31
  GI50: > 100 µM (inactive)
OVCAR-5
  GI50: > 100 µM (inactive)
SN12C
  GI50: > 100 µM (inactive)
Malme-3M
  GI50: > 100 µM (inactive)
OVCAR-4
  GI50: > 100 µM (inactive)
EKVX
  GI50: > 100 µM (inactive)
SK-OV-3
  GI50: > 100 µM (inactive)
NCI-H226
  GI50: > 100 µM (inactive)
MOLT-4
  GI50: > 100 µM (inactive)
SW-620
  GI50: > 100 µM (inactive)
HT-29
  GI50: > 100 µM (inactive)
K562
  GI50: > 100 µM (inactive)
786-0
  GI50: > 100 µM (inactive)
DMS-114
  GI50: > 100 µM (inactive)
ACHN
  GI50: > 100 µM (inactive)
OVCAR-8
  GI50: > 100 µM (inactive)
COLO 205
  GI50: > 100 µM (inactive)
A498
  GI50: > 100 µM (inactive)
UACC-257
  GI50: > 100 µM (inactive)
IGROV-1
  GI50: > 100 µM (inactive)
KM-20L2
  GI50: > 100 µM (inactive)
KM12
  GI50: 73.5 µM (inactive)
HCT-116
  GI50: > 100 µM (inactive)
SK-MEL-5
  GI50: > 100 µM (inactive)
XF498
  GI50: > 100 µM (inactive)
NCI-H460
  GI50: > 100 µM (inactive)
M14
  GI50: > 100 µM (inactive)
SNB-78
  GI50: > 100 µM (inactive)
DLD-1
  GI50: > 100 µM (inactive)
SNB-75
  GI50: > 100 µM (inactive)
SR
  GI50: > 100 µM (inactive)
HCT-15
  GI50: > 100 µM
RXF 393
  GI50: > 100 µM (inactive)
SF-295
  GI50: > 100 µM (inactive)
A549
  GI50: > 100 µM (inactive)
OVCAR-3
  GI50: > 100 µM (inactive)
TK-10
  GI50: > 100 µM (inactive)
U-251
  GI50: > 100 µM (inactive)
M19-MEL
  GI50: > 100 µM (inactive)
NCI-H522
  GI50: > 100 µM (inactive)
HOP-92
  GI50: > 100 µM (inactive)
